The values below come from patent publication US12466809B2, “CDK2/5 degraders and uses thereof” (DANA-FARBER CANCER INSTITUTE, INC., priority 2019, dated 2025).

By IC50 is commonly meant the concentration that gives 50% inhibition. Low values mean higher potency, high ones lower potency.

One assay deals with CDK2/Cyclin A (Homo sapiens (Human), UniProt P24941). Briefly: Invitrogen Z'-LYTE kinase assay CDK2/Cyclin A (assay ID 315, Km app, 10-point titration). Format: biochemical. The settings on record: Km app ATP. From the text: (§1) CDK2 and CDK5 IC50 data were attained through the use of Invitrogen™ commercial assays. The method for CDK2 (assay ID: 315, kinase|Z'-LYTE™|CDK2/Cyclin A|Km app) used a 10-point titration. The method for CDK5 (assay ID: 318, kinase|Z'-LYTE™|CDK5/p25|Km app) used a 10-point titration.

The next assay deals with CDK5/p25 (Homo sapiens (Human), UniProt Q00535). The assay is described as follows: Invitrogen Z'-LYTE kinase assay CDK5/p25 (assay ID 318, Km app, 10-point titration). Format: biochemical. The note with it: CDK5/p25, Km app ATP.
Sequence of CDK5/p25 (Q00535 whole entry): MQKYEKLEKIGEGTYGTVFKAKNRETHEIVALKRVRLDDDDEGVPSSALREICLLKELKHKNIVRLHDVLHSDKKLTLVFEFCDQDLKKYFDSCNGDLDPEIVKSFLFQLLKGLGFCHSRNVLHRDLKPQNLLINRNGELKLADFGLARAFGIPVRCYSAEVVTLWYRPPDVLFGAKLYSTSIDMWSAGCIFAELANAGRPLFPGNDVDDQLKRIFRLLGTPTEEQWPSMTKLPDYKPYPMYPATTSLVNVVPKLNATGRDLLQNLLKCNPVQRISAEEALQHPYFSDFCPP
Sequence of CDK5/p25 (Q15078 99-307 partner): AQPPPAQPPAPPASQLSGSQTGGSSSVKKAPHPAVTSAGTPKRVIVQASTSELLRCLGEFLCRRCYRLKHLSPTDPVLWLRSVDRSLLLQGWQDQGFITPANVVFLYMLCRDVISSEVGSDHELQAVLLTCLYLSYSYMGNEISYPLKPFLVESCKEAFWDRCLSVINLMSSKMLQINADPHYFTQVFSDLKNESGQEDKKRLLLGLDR
Source text: as §1

`Cc1ncsc1-c1ccc([C@H](C)NC(=O)[C@@H]2C[C@@H](O)CN2C(=O)[C@@H](NC(=O)CCCCC(=O)NCCS(=O)(=O)N2CCC(Nc3ncc(Br)c(Nc4cccc(F)c4C(N)=O)n3)CC2)C(C)(C)C)cc1` [Compound 10, N^1-(2-((4-((5-bromo-4-((2-carbamoyl-3-fluorophenyl)amino)pyrimidin-2-yl)amino)piperidin-1-yl)sulfonyl)ethyl)-N^6—((S)-1-((2S,4R)-4-hydroxy-2-(((S)-1-(4-(4-methylthiazol-5-yl)phenyl)ethyl)carbamoyl)pyrrolidin-1-yl)-3,3-dimethyl-1-oxobutan-2-yl)adipamide]: the IC50 against CDK2/Cyclin A was 9.1 nM; on CDK5/p25, 4.3 nM.
Taken in the same sequence, the figures for `O=C(CCCCCCCCOc1cccc2c1C(=O)N(C1CCC(=O)NC1=O)C2=O)NCCS(=O)(=O)N1CCC(Nc2ncc(Br)c(Nc3cccc4c3OCO4)n2)CC1` (stereo not drawn) [Compound 17, N-(2-((4-((4-(benzo[d][1,3]dioxol-4-ylamino)-5-bromopyrimidin-2-yl)amino)piperidin-1-yl)sulfonyl)ethyl)-9-((2-(2,6-dioxopiperidin-3-yl)-1,3-dioxoisoindolin-4-yl)oxy)nonanamide] were 253 nM and 924 nM.
For `O=C(CCOCCOCCOCCOCCNc1cccc2c1C(=O)N(C1CCC(=O)NC1=O)C2=O)NCCS(=O)(=O)N1CCC(Nc2ncc(Br)c(N3CCCc4ccccc43)n2)CC1` (stereo not drawn) [Compound 18, N-(2-((4-((5-bromo-4-(3,4-dihydroquinolin-1(2H)-yl)pyrimidin-2-yl)amino)piperidin-1-yl)sulfonyl)ethyl)-1-((2-(2,6-dioxopiperidin-3-yl)-1,3-dioxoisoindolin-4-yl)amino)-3,6,9,12-tetraoxapentadecan-15-amide], the values for the IC50 against CDK2/Cyclin A and against CDK5/p25 were 23.7 nM and 27.4 nM, respectively.
Take `NC(=O)c1c(F)cccc1Nc1nc(NC2CCN(S(=O)(=O)CCNC(=O)CCOCCOCCOCCOCCNc3cccc4c3C(=O)N(C3CCC(=O)NC3=O)C4=O)CC23CC3)ncc1Br` (stereo not drawn) [Compound 19, N-(2-((8-((5-bromo-4-((2-carbamoyl-3-fluorophenyl)amino)pyrimidin-2-yl)amino)-5-azaspiro[2.5]octan-5-yl)sulfonyl)ethyl)-1-((2-(2,6-dioxopiperidin-3-yl)-1,3-dioxoisoindolin-4-yl)amino)-3,6,9,12-tetraoxapentadecan-15-amide]: the results for the IC50 at CDK2/Cyclin A and against CDK5/p25 were 116 nM and 71.3 nM, respectively.
Turning to `O=C(CCOCCOCCOCCOCCNc1cccc2c1C(=O)N(C1CCC(=O)NC1=O)C2=O)NCCS(=O)(=O)N1CCC(Nc2ncc(Br)c(Nc3cccc4c3C(=O)NC4)n2)CC1` (stereo not drawn) [Compound 20, N-(2-((4-((5-bromo-4-((3-oxoisoindolin-4-yl)amino)pyrimidin-2-yl)amino)piperidin-1-yl)sulfonyl)ethyl)-1-((2-(2,6-dioxopiperidin-3-yl)-1,3-dioxoisoindolin-4-yl)amino)-3,6,9,12-tetraoxapentadecan-15-amide], the IC50 on CDK2/Cyclin A is 4.7 nM; at CDK5/p25, 5.8 nM.
Consider `O=C(CCCCCCCCOc1cccc2c1C(=O)N(C1CCC(=O)NC1=O)C2=O)NCCS(=O)(=O)N1CCC(Nc2ncc(Br)c(Nc3cccc4c3C(=O)NC4)n2)CC1` (stereo not drawn) [Compound 21, N-(2-((4-((5-bromo-4-((3-oxoisoindolin-4-yl)amino)pyrimidin-2-yl)amino)piperidin-1-yl)sulfonyl)ethyl)-9-((2-(2,6-dioxopiperidin-3-yl)-1,3-dioxoisoindolin-4-yl)oxy)nonanamide], for which the IC50 turned out to be 10.5 nM against CDK2/Cyclin A and 7.6 nM against CDK5/p25.
As for `Cn1ncc(Nc2nc(NC3CCN(S(=O)(=O)CCNC(=O)CCCCCCCCOc4cccc5c4C(=O)N(C4CCC(=O)NC4=O)C5=O)CC3)ncc2Br)c1C(N)=O` (stereo not drawn) [Compound 22, 4-((5-bromo-2-((1-((2-(9-((2-(2,6-dioxopiperidin-3-yl)-1,3-dioxoisoindolin-4-yl)oxy)nonanamido)ethyl)sulfonyl)piperidin-4-yl)amino)pyrimidin-4-yl)amino)-1-methyl-1H-pyrazole-5-carboxamide], the half-maximal inhibitory concentration (IC50) at CDK2/Cyclin A and at CDK5/p25 was 5.7 nM each time.
With `NC(=O)c1c(F)cccc1Nc1nc(Nc2ccc(S(=O)(=O)NCCOCCOCCOCCOCCNc3cccc4c3C(=O)N(C3CCC(=O)NC3=O)C4=O)cc2)ncc1Br` (stereo not drawn) [Compound 23, 2-((5-bromo-2-((4-(N-(14-((2-(2,6-dioxopiperidin-3-yl)-1,3-dioxoisoindolin-4-yl)amino)-3,6,9,12-tetraoxatetradecyl)sulfamoyl)phenyl)amino)pyrimidin-4-yl)amino)-6-fluorobenzamide], the values for the IC50 against CDK2/Cyclin A and against CDK5/p25 were 10.9 nM and 7 nM, respectively.
Consider `Cc1cc(Nc2ncc(Br)c(Nc3cccc(F)c3C(N)=O)n2)ccc1S(=O)(=O)NCCOCCOCCOCCOCCNc1cccc2c1C(=O)N(C1CCC(=O)NC1=O)C2=O` (stereo not drawn) [Compound 25, 2-((5-bromo-2-((4-(N-(14-((2-(2,6-dioxopiperidin-3-yl)-1,3-dioxoisoindolin-4-yl)amino)-3,6,9,12-tetraoxatetradecyl)sulfamoyl)-3-methylphenyl)amino)pyrimidin-4-yl)amino)-6-fluorobenzamide], for which the values for the half-maximal inhibitory concentration (IC50) at CDK2/Cyclin A and against CDK5/p25 were 8.1 nM and 7.1 nM, respectively.
On the same counts, the results for `Cc1cc(S(=O)(=O)NCCOCCOCCOCCOCCNC(=O)COc2cccc3c2C(=O)N(C2CCC(=O)NC2=O)C3=O)ccc1Nc1ncc(Br)c(Nc2cccc(F)c2C(N)=O)n1` (stereo not drawn) [Compound 46, 2-((5-bromo-2-((4-(N-(1-((2-(2,6-dioxopiperidin-3-yl)-1,3-dioxoisoindolin-4-yl)oxy)-2-oxo-6,9,12,15-tetraoxa-3-azaheptadecan-17-yl)sulfamoyl)-2-methylphenyl)amino)pyrimidin-4-yl)amino)-6-fluorobenzamide] are 1.7 nM and 1.4 nM.
As for `Cc1cc(S(=O)(=O)NCCCCCCCCCCNC(=O)COc2cccc3c2C(=O)N(C2CCC(=O)NC2=O)C3=O)ccc1Nc1ncc(Br)c(Nc2cccc(F)c2C(N)=O)n1` (stereo not drawn) [Compound 47, 2-((5-bromo-2-((4-(N-(10-(2-((2-(2,6-dioxopiperidin-3-yl)-1,3-dioxoisoindolin-4-yl)oxy)acetamido)decyl)sulfamoyl)-2-methylphenyl)amino)pyrimidin-4-yl)amino)-6-fluorobenzamide], the IC50 on CDK2/Cyclin A turned out to be 19.4 nM; against CDK5/p25, 18.2 nM.
On the same counts, the results for `Cc1cc(S(=O)(=O)NCCCCN2CCN(C(=O)COc3cccc4c3C(=O)N(C3CCC(=O)NC3=O)C4=O)CC2)ccc1Nc1ncc(Br)c(Nc2cccc(F)c2C(N)=O)n1` (stereo not drawn) [Compound 48, 2-((5-bromo-2-((4-(N-(4-(4-(2-((2-(2,6-dioxopiperidin-3-yl)-1,3-dioxoisoindolin-4-yl)oxy)acetyl)piperazin-1-yl)butyl)sulfamoyl)-2-methylphenyl)amino)pyrimidin-4-yl)amino)-6-fluorobenzamide] are 2 nM and 2.9 nM.
